Results from paper PMC7781011 (Journal of Inflammation Research, 2020).

Assays:
Assay type in all cases: biochemical
mouse 5-LOX = molecular target: T1, mouse 5-LOX (Mus musculus, UniProt P48999); assay: Cell-free fluorometric 5-LOX assay
T1 sequence (P48999 1-674): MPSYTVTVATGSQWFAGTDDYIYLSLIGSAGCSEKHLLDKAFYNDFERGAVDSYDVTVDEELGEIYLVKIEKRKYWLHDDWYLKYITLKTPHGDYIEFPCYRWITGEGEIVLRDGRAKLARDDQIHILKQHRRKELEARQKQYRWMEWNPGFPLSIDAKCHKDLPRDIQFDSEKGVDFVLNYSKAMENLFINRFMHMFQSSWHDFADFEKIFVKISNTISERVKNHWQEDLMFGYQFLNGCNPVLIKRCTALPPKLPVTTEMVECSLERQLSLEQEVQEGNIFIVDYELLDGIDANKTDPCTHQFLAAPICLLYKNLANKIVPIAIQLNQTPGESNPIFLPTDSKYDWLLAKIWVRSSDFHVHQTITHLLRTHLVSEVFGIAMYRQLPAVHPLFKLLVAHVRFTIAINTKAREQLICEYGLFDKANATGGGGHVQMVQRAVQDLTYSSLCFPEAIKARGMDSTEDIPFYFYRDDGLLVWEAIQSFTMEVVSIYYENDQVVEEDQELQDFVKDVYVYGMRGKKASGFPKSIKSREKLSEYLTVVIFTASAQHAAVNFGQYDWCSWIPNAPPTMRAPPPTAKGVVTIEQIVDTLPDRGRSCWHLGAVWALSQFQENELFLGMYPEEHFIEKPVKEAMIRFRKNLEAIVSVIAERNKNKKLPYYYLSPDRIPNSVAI

rat 5-LOX = molecular target: T2, rat 5-LOX (Rattus norvegicus, UniProt P12527); assay: Cell-free fluorometric 5-LOX assay
T2 sequence (P12527 1-673): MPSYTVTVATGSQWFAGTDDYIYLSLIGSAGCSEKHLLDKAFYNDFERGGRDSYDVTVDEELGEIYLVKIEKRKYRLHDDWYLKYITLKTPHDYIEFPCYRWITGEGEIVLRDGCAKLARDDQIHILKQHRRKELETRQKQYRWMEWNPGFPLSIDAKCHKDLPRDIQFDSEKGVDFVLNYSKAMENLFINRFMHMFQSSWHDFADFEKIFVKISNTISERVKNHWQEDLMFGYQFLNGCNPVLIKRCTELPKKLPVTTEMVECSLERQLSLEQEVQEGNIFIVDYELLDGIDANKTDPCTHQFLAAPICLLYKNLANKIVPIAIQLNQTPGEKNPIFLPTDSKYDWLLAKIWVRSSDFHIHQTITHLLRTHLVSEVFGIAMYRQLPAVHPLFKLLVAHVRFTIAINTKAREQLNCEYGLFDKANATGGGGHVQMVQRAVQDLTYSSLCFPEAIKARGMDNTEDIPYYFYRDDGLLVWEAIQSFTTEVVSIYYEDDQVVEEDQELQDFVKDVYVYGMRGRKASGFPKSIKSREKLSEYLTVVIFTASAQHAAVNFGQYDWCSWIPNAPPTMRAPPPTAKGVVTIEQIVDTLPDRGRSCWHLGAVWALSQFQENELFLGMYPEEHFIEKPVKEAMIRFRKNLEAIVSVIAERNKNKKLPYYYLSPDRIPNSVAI

human COX-1 = human COX-1 (Homo sapiens, UniProt P23219); assay: Cell-free fluorometric COX-1 assay
mouse COX-2 = molecular target: T3, mouse COX-2 (Mus musculus, UniProt Q05769); assay: Cell-free fluorometric COX-2 assay
T3 sequence (Q05769 18-604): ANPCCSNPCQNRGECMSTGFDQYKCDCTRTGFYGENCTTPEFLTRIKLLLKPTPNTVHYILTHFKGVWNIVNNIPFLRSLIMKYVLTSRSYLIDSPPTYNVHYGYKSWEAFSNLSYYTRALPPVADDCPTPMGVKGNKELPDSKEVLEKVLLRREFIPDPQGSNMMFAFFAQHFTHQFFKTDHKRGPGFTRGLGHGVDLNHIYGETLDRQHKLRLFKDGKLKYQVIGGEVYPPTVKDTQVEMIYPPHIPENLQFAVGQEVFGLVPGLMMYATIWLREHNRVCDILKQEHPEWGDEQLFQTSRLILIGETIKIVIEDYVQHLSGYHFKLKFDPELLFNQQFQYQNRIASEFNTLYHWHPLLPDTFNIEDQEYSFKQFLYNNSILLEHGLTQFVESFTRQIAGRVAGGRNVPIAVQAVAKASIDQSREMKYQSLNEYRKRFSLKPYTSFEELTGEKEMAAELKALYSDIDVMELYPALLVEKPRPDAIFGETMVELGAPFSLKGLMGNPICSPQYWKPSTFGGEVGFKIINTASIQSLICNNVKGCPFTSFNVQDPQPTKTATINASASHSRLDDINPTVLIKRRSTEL

rat COX-2 = molecular target: T4, rat COX-2 (Rattus norvegicus, UniProt P35355); assay: Cell-free fluorometric COX-2 assay
T4 sequence (P35355 18-604): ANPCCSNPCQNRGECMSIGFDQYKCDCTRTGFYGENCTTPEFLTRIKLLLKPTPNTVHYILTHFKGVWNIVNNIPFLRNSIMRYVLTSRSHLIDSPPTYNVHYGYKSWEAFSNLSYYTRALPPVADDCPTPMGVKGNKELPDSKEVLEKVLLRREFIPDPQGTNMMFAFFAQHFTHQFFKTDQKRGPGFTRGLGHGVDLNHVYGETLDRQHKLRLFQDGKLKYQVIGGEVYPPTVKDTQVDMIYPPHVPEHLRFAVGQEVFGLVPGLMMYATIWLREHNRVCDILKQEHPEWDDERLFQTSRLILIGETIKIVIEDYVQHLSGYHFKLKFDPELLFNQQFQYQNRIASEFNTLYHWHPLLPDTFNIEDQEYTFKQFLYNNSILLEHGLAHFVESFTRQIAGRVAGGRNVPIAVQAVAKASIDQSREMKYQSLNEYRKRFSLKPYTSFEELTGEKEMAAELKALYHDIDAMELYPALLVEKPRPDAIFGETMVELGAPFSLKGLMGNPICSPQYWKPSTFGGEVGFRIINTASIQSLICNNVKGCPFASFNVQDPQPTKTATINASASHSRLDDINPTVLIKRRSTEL

human COX-1, sequence (P23219 24-599): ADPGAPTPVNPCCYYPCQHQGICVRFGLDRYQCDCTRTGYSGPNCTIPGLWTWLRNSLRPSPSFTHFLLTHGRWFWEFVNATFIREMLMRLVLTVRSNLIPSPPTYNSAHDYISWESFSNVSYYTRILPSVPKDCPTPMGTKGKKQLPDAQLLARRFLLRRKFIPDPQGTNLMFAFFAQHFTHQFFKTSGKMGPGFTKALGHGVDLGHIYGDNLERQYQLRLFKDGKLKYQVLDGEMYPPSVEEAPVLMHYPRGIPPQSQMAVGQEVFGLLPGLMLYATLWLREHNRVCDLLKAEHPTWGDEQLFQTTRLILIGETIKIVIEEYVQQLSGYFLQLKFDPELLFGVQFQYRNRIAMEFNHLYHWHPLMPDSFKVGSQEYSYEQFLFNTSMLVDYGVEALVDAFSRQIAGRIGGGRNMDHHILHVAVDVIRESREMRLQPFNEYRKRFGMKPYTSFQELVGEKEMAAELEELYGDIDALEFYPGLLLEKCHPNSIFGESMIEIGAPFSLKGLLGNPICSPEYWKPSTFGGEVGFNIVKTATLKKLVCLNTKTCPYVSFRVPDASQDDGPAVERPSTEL

Row | IC50 (human COX-1) | IC50 (mouse COX-2) | IC50 (rat COX-2) | SMILES | IC50 (mouse 5-LOX) | IC50 (rat 5-LOX) | inhibition of COX-1 activity (human COX-1; cell-free, human, up to the tested range of 1 mM) | inhibition of COX-2 activity (mouse COX-2; cell-free, mouse, up to the tested range of 1 mM) | inhibition of COX-2 activity (rat COX-2; cell-free, rat, up to the tested range of 1 mM)
1 |  |  |  | CC1(C)Cc2c(-c3ccccc3)c(-c3ccc(Cl)cc3)c(CC(=O)NCC(=O)O)n2C1 [LFA-9, 2-[[2-[2-(4-chlorophenyl)-6,6-dimethyl-1-phenyl-5,7-dihydropyrrolizin-3-yl]acetyl]amino]acetic acid] | 2640 nM | 890 nM | did not show inhibition | did not show inhibition | did not show inhibition
2 | 1650 nM | 2010 nM | 3260 nM | CC1(C)Cc2c(-c3ccccc3)c(-c3ccc(Cl)cc3)c(CC(=O)O)n2C1 [Licofelone, reference compound] | 2340 nM | 640 nM |  |  | 
